Test results as given in ChEMBL document CHEMBL3526023 (Drug Metab Dispos, 2011).
Values belong to the molecule of their own block, whether it stands above or below them.

What was measured:
[1] = biological target: T1, UDP-glucuronosyltransferase 2B7 (Homo sapiens, UniProt P16662); assay: Drug metabolism in diabetic human liver microsomes assessed as UGT2B7-mediated zidovudine glucuronide formation per pmol protein by HPLC and LC-MS/MS method; assay type: ADME
T1 sequence (P16662 whole entry): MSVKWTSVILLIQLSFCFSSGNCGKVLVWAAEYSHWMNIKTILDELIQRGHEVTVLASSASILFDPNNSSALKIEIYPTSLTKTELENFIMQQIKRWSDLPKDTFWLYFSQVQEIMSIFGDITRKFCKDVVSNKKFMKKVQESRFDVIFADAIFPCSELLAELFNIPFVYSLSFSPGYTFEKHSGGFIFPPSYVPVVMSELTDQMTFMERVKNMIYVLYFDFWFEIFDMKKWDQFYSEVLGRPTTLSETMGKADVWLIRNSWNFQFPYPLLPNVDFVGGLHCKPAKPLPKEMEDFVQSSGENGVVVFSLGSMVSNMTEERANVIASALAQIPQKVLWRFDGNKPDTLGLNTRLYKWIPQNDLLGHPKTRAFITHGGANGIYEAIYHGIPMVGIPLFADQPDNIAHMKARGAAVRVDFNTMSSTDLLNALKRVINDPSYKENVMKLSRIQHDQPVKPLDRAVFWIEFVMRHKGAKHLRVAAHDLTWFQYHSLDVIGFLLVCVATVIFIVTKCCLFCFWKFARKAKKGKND

[2] = biological target: T1, UDP-glucuronosyltransferase 2B7; conditions: microsomes
[3] = biological target: T1, UDP-glucuronosyltransferase 2B7; assay: Drug metabolism in non-diabetic human kidney microsomes assessed as UGT2B7-mediated zidovudine glucuronide formation per pmol protein by HPLC and LC-MS/MS method; assay type: ADME
[4] = biological target: T1, UDP-glucuronosyltransferase 2B7; conditions: microsomes; remark: listed apart in the source
[5] = biological target: T1, UDP-glucuronosyltransferase 2B7; assay: Ratio of Vmax to Km in diabetic human liver microsomes assessed as UGT2B7-mediated zidovudine glucuronide formation per pmol protein by HPLC and LC-MS/MS method; assay type: ADME
[6] = biological target: T1, UDP-glucuronosyltransferase 2B7; conditions: microsomes; remark: listed apart in the source
[7] = biological target: T1, UDP-glucuronosyltransferase 2B7; conditions: microsomes; remark: listed apart in the source
[8] = biological target: T1, UDP-glucuronosyltransferase 2B7; assay: Drug metabolism in diabetic human kidney microsomes assessed as UGT2B7-mediated zidovudine glucuronide formation per pmol protein by HPLC and LC-MS/MS method; assay type: ADME
[9] = biological target: T1, UDP-glucuronosyltransferase 2B7; assay: Drug metabolism in non-diabetic human liver microsomes assessed as UGT2B7-mediated zidovudine glucuronide formation per pmol protein by HPLC and LC-MS/MS method; assay type: ADME
[10] = biological target: T1, UDP-glucuronosyltransferase 2B7; assay: Uncompetitive substrate inhibition of UGT2B7 in diabetic human kidney microsomes assessed as reduction in enzyme-mediated mycophenolic acid phenolic 7-O-glucuronide formation by HPLC and LC-MS/MS method; assay type: ADME
[11] = biological target: T1, UDP-glucuronosyltransferase 2B7; assay: Drug metabolism in non-diabetic human kidney microsomes assessed as UGT2B7-mediated mycophenolic acid phenolic 7-O-glucuronide formation per pmol protein by HPLC and LC-MS/MS method; assay type: ADME
[12] = biological target: T1, UDP-glucuronosyltransferase 2B7; assay: Drug metabolism in non-diabetic human liver microsomes assessed as UGT2B7-mediated mycophenolic acid acyl glucuronide formation per pmol protein by HPLC and LC-MS/MS method; assay type: ADME
[13] = biological target: T1, UDP-glucuronosyltransferase 2B7; assay: Uncompetitive substrate inhibition of UGT2B7 in diabetic human kidney microsomes assessed as reduction in enzyme-mediated mycophenolic acid acyl glucuronide formation by HPLC and LC-MS/MS method; assay type: ADME
[14] = biological target: T1, UDP-glucuronosyltransferase 2B7; assay: Ratio of Vmax to Km in diabetic human kidney microsomes assessed as UGT2B7-mediated mycophenolic acid acyl glucuronide formation per pmol protein by HPLC and LC-MS/MS method; assay type: ADME
[15] = biological target: T1, UDP-glucuronosyltransferase 2B7; assay: Uncompetitive substrate inhibition of UGT2B7 in diabetic human liver microsomes assessed as reduction in enzyme-mediated mycophenolic acid phenolic 7-O-glucuronide formation by HPLC and LC-MS/MS method; assay type: ADME
[16] = biological target: T1, UDP-glucuronosyltransferase 2B7; assay: Uncompetitive substrate inhibition of UGT2B7 in non-diabetic human kidney microsomes assessed as reduction in enzyme-mediated mycophenolic acid acyl glucuronide formation by HPLC and LC-MS/MS method; assay type: ADME
[17] = biological target: T1, UDP-glucuronosyltransferase 2B7; assay: Ratio of Vmax to Km in non-diabetic human kidney microsomes assessed as UGT2B7-mediated mycophenolic acid phenolic 7-O-glucuronide formation per pmol protein by HPLC and LC-MS/MS method; assay type: ADME
[18] = biological target: T1, UDP-glucuronosyltransferase 2B7; assay: Drug metabolism in diabetic human kidney microsomes assessed as UGT2B7-mediated mycophenolic acid phenolic 7-O-glucuronide formation per pmol protein by HPLC and LC-MS/MS method; assay type: ADME
[19] = biological target: T1, UDP-glucuronosyltransferase 2B7; assay: Uncompetitive substrate inhibition of UGT2B7 in diabetic human liver microsomes assessed as reduction in enzyme-mediated mycophenolic acid acyl glucuronide formation by HPLC and LC-MS/MS method; assay type: ADME
[20] = biological target: T1, UDP-glucuronosyltransferase 2B7; assay: Uncompetitive substrate inhibition of UGT2B7 in non-diabetic human liver microsomes assessed as reduction in enzyme-mediated mycophenolic acid phenolic 7-O-glucuronide formation by HPLC and LC-MS/MS method; assay type: ADME
[21] = biological target: T1, UDP-glucuronosyltransferase 2B7; assay: Uncompetitive substrate inhibition of UGT2B7 in non-diabetic human liver microsomes assessed as reduction in enzyme-mediated mycophenolic acid acyl glucuronide formation by HPLC and LC-MS/MS method; assay type: ADME
[22] = biological target: T1, UDP-glucuronosyltransferase 2B7; assay: Drug metabolism in diabetic human liver microsomes assessed as UGT2B7-mediated mycophenolic acid acyl glucuronide formation per pmol protein by HPLC and LC-MS/MS method; assay type: ADME
[23] = biological target: T1, UDP-glucuronosyltransferase 2B7; assay: Drug metabolism in diabetic human kidney microsomes assessed as UGT2B7-mediated mycophenolic acid acyl glucuronide formation per pmol protein by HPLC and LC-MS/MS method; assay type: ADME
[24] = biological target: T1, UDP-glucuronosyltransferase 2B7; assay: Ratio of Vmax to Km in non-diabetic human kidney microsomes assessed as UGT2B7-mediated mycophenolic acid acyl glucuronide formation per pmol protein by HPLC and LC-MS/MS method; assay type: ADME
[25] = biological target: T1, UDP-glucuronosyltransferase 2B7; assay: Drug metabolism in non-diabetic human liver microsomes assessed as UGT2B7-mediated mycophenolic acid phenolic 7-O-glucuronide formation per pmol protein by HPLC and LC-MS/MS method; assay type: ADME
[26] = biological target: T1, UDP-glucuronosyltransferase 2B7; assay: Ratio of Vmax to Km in non-diabetic human liver microsomes assessed as UGT2B7-mediated mycophenolic acid phenolic 7-O-glucuronide formation per pmol protein by HPLC and LC-MS/MS method; assay type: ADME
[27] = biological target: T1, UDP-glucuronosyltransferase 2B7; assay: Ratio of Vmax to Km in diabetic human liver microsomes assessed as UGT2B7-mediated mycophenolic acid phenolic 7-O-glucuronide formation per pmol protein by HPLC and LC-MS/MS method; assay type: ADME
[28] = biological target: T1, UDP-glucuronosyltransferase 2B7; assay: Ratio of Vmax to Km in diabetic human liver microsomes assessed as UGT2B7-mediated mycophenolic acid acyl glucuronide formation per pmol protein by HPLC and LC-MS/MS method; assay type: ADME
[29] = biological target: T1, UDP-glucuronosyltransferase 2B7; assay: Ratio of Vmax to Km in non-diabetic human liver microsomes assessed as UGT2B7-mediated mycophenolic acid acyl glucuronide formation per pmol protein by HPLC and LC-MS/MS method; assay type: ADME
[30] = biological target: T1, UDP-glucuronosyltransferase 2B7; assay: Uncompetitive substrate inhibition of UGT2B7 in non-diabetic human kidney microsomes assessed as reduction in enzyme-mediated mycophenolic acid phenolic 7-O-glucuronide formation by HPLC and LC-MS/MS method; assay type: ADME
[31] = biological target: T1, UDP-glucuronosyltransferase 2B7; assay: Drug metabolism in diabetic human liver microsomes assessed as UGT2B7-mediated mycophenolic acid phenolic 7-O-glucuronide formation per pmol protein by HPLC and LC-MS/MS method; assay type: ADME
[32] = biological target: T1, UDP-glucuronosyltransferase 2B7; assay: Ratio of Vmax to Km in diabetic human kidney microsomes assessed as UGT2B7-mediated mycophenolic acid phenolic 7-O-glucuronide formation per pmol protein by HPLC and LC-MS/MS method; assay type: ADME
[33] = substrate: COc1c(C)c2c(c(O)c1C/C=C(\C)CCC(=O)O)C(=O)OC2; assay: Drug metabolism in non-diabetic human kidney microsomes assessed as UGT2B7-mediated mycophenolic acid acyl glucuronide formation by HPLC and LC-MS/MS method; assay type: ADME
[34] = substrate: COc1c(C)c2c(c(O)c1C/C=C(\C)CCC(=O)O)C(=O)OC2; assay: Drug metabolism in diabetic human kidney microsomes assessed as UGT2B7-mediated mycophenolic acid acyl glucuronide formation by HPLC and LC-MS/MS method; assay type: ADME
[35] = substrate: COc1c(C)c2c(c(O)c1C/C=C(\C)CCC(=O)O)C(=O)OC2; assay: Drug metabolism in non-diabetic human kidney microsomes assessed as UGT2B7-mediated mycophenolic acid phenolic 7-O-glucuronide formation by HPLC and LC-MS/MS method; assay type: ADME
[36] = substrate: COc1c(C)c2c(c(O)c1C/C=C(\C)CCC(=O)O)C(=O)OC2; assay: Drug metabolism in diabetic human liver microsomes assessed as UGT2B7-mediated mycophenolic acid acyl glucuronide formation by HPLC and LC-MS/MS method; assay type: ADME
[37] = substrate: COc1c(C)c2c(c(O)c1C/C=C(\C)CCC(=O)O)C(=O)OC2; assay: Drug metabolism in diabetic human liver microsomes assessed as UGT2B7-mediated mycophenolic acid phenolic 7-O-glucuronide formation by HPLC and LC-MS/MS method; assay type: ADME
[38] = substrate: COc1c(C)c2c(c(O)c1C/C=C(\C)CCC(=O)O)C(=O)OC2; assay: Drug metabolism in non-diabetic human liver microsomes assessed as UGT2B7-mediated mycophenolic acid acyl glucuronide formation by HPLC and LC-MS/MS method; assay type: ADME
[39] = substrate: COc1c(C)c2c(c(O)c1C/C=C(\C)CCC(=O)O)C(=O)OC2; assay: Drug metabolism in non-diabetic human liver microsomes assessed as UGT2B7-mediated mycophenolic acid phenolic 7-O-glucuronide formation by HPLC and LC-MS/MS method; assay type: ADME
[40] = substrate: COc1c(C)c2c(c(O)c1C/C=C(\C)CCC(=O)O)C(=O)OC2; assay: Drug metabolism in diabetic human kidney microsomes assessed as UGT2B7-mediated mycophenolic acid phenolic 7-O-glucuronide formation by HPLC and LC-MS/MS method; assay type: ADME

- Vmax [1]: 274 pmol/min
- Km [2]: 519 µM
- Vmax [3]: 20.5 pmol/min
- Km [4]: 330 µM
- Vmax/Km [5]: 0.87 nL/min
- Km [6]: 519 µM
- Km [7]: 307 µM
- Vmax [8]: 6.52 pmol/min
- Vmax [9]: 1214 pmol/min
Molecule: Cc1cn([C@H]2C[C@H](N=[N+]=[N-])[C@@H](CO)O2)c(=O)[nH]c1=O [ZIDOVUDINE]

- Ki [10]: 1.5 µM
- Vmax [11]: 26.4 pmol/min
- Vmax [12]: 2.43 pmol/min
- Ki [13]: 2 µM
- Vmax/Km [14]: 0.12 nL/min
- Ki [15]: 1.5 µM
- Ki [16]: 2 µM
- Vmax/Km [17]: 27.6 nL/min
- Vmax [18]: 38.8 pmol/min
- Ki [19]: 2 µM
- Ki [20]: 1.5 µM
- Ki [21]: 2 µM
- Vmax [22]: 0.76 pmol/min
- Vmax [23]: 0.43 pmol/min
- Vmax/Km [24]: 0.41 nL/min
- Vmax [25]: 10.6 pmol/min
- Vmax/Km [26]: 22.9 nL/min
- Vmax/Km [27]: 31.3 nL/min
- Vmax/Km [28]: 1.51 nL/min
- Vmax/Km [29]: 4.08 nL/min
- Ki [30]: 1.5 µM
- Vmax [31]: 15.7 pmol/min
- Vmax/Km [32]: 34.1 nL/min
Molecule: COc1c(C)c2c(c(O)c1C/C=C(\C)CCC(=O)O)C(=O)OC2 [MYCOPHENOLIC ACID]

B1: UDP-glucuronosyltransferase 2B7 (Homo sapiens) (protein)
chain: T1 sequence (P16662 whole entry)
- Km [33]: 3010 µM
- Km [34]: 3430 µM
- Km [35]: 1010 µM
- Km [36]: 502 µM
- Km [37]: 482 µM
- Km [38]: 601 µM
- Km [39]: 454 µM
- Km [40]: 1160 µM
